{"source": "patent US8097615B2", "about": "“Neurofibrillary labels” (Wista Laboratories Ltd., priority 2001, dated 2012)", "key": {"PHFs": {"test_system": "PHFs", "test": "Spectrofluorometry of primulin in solution and bound to PHFs (ifII)", "format": "binding", "procedure": "These measurements were carried out in a Perkin-Elmer spectrofluorimeter (model MPF-3). A concentration of ligand of 0.00001% was routinely used for all measurements. […] All measurements were therefore carried out at a standard excitation wavelength of 370 nm, and a constant slit width of 3 mm.\nFurther investigations into the relationship between aggregation-dependent tau ligands and tau aggregation inhibitors were carried out using primulin. Primulin in solution has a fluorescence peak at 520 nm. This shifts to 470 nm when primulin is bound within a pure preparation of PHFs (FIG. 6). […] Therefore, binding by such compounds is dependent on the polymerised state of tau found in the PHF, but is not present in free tau.\nCompounds have been identified which disrupt the structure of the PHF and reverse the proteolytic stability of the PHF core (see WO 96/30766). Examples of such compounds are shown in accompanying FIG. 8. The present inventors have now identified that these compounds bind to tau at a specific binding site within the high affinity tau-tau binding domain."}, "tau-tau binding [1]": {"test_system": "tau-tau binding", "test": "Solid-phase tau-tau binding assay, tau Preparation 1 (WO96/30766)", "format": "biochemical, human", "source_text": "This point was further examined by studying the potency of typical aggregated tau ligands as tau-aggregation inhibitors. It has been shown previously that tau aggregation inhibitors (e.g. diaminophenothiazines) can be identified on the basis of inhibition of tau-tau binding in a solid-phase assay (WO 96/30766). […] Thus, although these compounds are potent ligands for tau within the PHF-core, they are at most weak inhibitors at the site required for inhibition of tau-tau binding.\nLarge-scale purification (1 liter bacterial culture) of tau fragments was carried out as described by Goedert and Jakes (1990, EMBO J., 9, 4225-4230), with minor modifications. Cells were disrupted by rapid freezing of the cell pellet in liquid nitrogen. The pellets were then suspended in buffer containing 50 mM PIPES, 1 mM dithiothreitol (DTT) (pH 6.8). The thermostable proteins in the supernatant were dialysed against PIPES/DTT, then applied to a column containing phosphocellulose equilibrated in the same buffer. […] Fractions were analysed by SDS-PAGE and both Coomassie staining and immunoblotting. […] Protein concentrations were measured by the Lowry method (Harrington C R (1990), “Lowry protein assay containing sodium dodecyl sulphate in microtitre plates for protein determinations on fractions from brain tissue”, Analytical Biochemistry 186: 285-287)."}, "tau-tau binding [2]": {"molecular_target": "T1, tau-tau binding (Homo sapiens, UniProt P10636)", "T1 construct": "a truncated tau protein corresponding to the core fragment and terminating at Ala390-dGA; dGAE which terminates at Glu-391; made in house; host or cells: E. coli BL21 (DE3), pRK172; DE52 flow-through, P11 phosphocellulose, PEG concentration, no heat step (Preparation 2)", "T1 sequence (P10636 614-708 limits assumed)": "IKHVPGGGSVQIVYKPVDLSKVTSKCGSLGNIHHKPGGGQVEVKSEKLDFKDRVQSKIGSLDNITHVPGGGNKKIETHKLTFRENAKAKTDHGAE", "test": "Relief of DMMB inhibition of tau-tau binding by ligands (Preparation 2)", "format": "biochemical", "settings": "for BMax of tau-tau binding: Binding=(BMax×[ligand])/(Kd+[ligand])", "source_text": "2. using tau proteins prepared in this manner for testing putative ligands in the tau-tau binding assay provided in WO96/30766 to identify substances which have minimal or entirely absent activity as tau-aggregation inhibitors or enhance tau-tau binding at high concentrations; 3. testing putative ligands in the presence of an exemplary potent tau-aggregation inhibitor, such as DMMB, at an inhibitory concentration; 4. putative ligands can be identified by the property that they lack capacity to block tau-tau binding through the repeat domain, but block the inhibitory activity of a potent tau-aggregation inhibitor.\n(ii) contacting (a) a tau protein or a derivative thereof containing the tau core fragment bound to a solid phase so as to expose a high affinity tau capture site (e.g. a truncated tau protein corresponding to the core fragment and terminating at Ala390-dGA), with (b) a liquid phase tau protein or derivative thereof capable of binding to the solid phase tau protein or derivative (e.g. dGAE which terminates at Glu-391), and (c) said selected first agent and (d) a second agent known to be tau-tau binding inhibitor, (iii) selecting a first agent which fully or partially relieves the inhibition of binding of the liquid phase tau protein or derivative of (b) to the solid phase tau protein or derivative of (a) by the inhibitor (d).\nSimilar results are shown for 15 μM DMMB in the presence of increasing concentrations of Primulin (c) and Thiazin Red (d).\nFor each graph, Tau-Tau binding is shown in the presence of constant concentrations of DMMB co-incubated with Primulin at 0×, 1×, 5×, 10×, 100× the DMMB concentrations shown.\nThis implies that the Tau-aggregation enhancement effect of these ligands is proportional to the fraction of ligand-binding sites occupied, presumably within the Tau aggregates introduced into the aqueous-phase of the assay. The mean Bmax for both ligands is ˜1.6. That is, the maximum ligand effect is to produce 1.6-fold the Tau-Tau binding signal seen in the absence of any drug. The mean Kd for this effect is ˜15×. That is, for any given concentration of DMMB>4 μM, 50% of maximal enhancement of Tau-Tau binding can be seen when the ligand molar excess is 15-fold relative to the concentration of DMMB."}}, "note": "Values joined by “and” are separate entries in the source; they are usually repeats but may differ in a detail not shown here. Equal entries are not always repeated. “Also recorded” adds a separate entry of the source."}
{"smiles": "Cc1ccc2sc(-c3ccc4sc(-c5ccc(N)cc5)nc4c3)nc2c1S(=O)(=O)[O-].[Na+]", "note": "[primulin]", "values": [{"measurement": "excitation peak", "setting": "PHFs; ligand 0.00001%", "result": 370, "unit": "nm"}, {"measurement": "fluorescence peak when bound within PHFs", "setting": "PHFs; pure preparation of PHFs", "result": "460 nm and 470 nm"}, {"measurement": "fluorescence (emission) peak in solution", "setting": "PHFs; unbound", "result": "515 nm and 520 nm"}, {"measurement": "inhibition of tau-tau binding", "setting": "tau-tau binding [1]", "result": "weak inhibitors of tau-tau binding"}, {"measurement": "BMax of tau-tau binding", "setting": "tau-tau binding [2]; 5 μM DMMB", "result": 1.38}, {"measurement": "BMax of tau-tau binding", "setting": "tau-tau binding [2]; 25 μM DMMB", "result": 1.67}, {"measurement": "reversal of inhibitory effect of DMMB on tau-tau binding", "setting": "tau-tau binding [2]; co-incubation with increasing molar excess of ligand", "result": "progressively attenuated and reversed; also recorded: completely reversed"}]}
